Measured values published in patent US20220323406A1, “METHODS AND COMPOSITIONS FOR DIFFERENTIATING STEM CELLS” (Massachusetts Institute of Technology, priority 2019, published 2022).

Key:
[1] = tested on: ENR+CD organoids (ISC to Paneth cell differentiation); experiment: Primary screen: basal (non-stimulated) lysozyme secretion LYZ.NS, 2.5-D 384-well ENR+CD organoid differentiation; format: cell-based, mouse
Description: (§1) High-throughput screening.

[2] = tested on: ENR+CD organoids (ISC to Paneth cell differentiation); experiment: Primary screen: CCh-stimulated lysozyme secretion LYZ.S, 2.5-D 384-well ENR+CD organoid differentiation; format: cell-based, mouse; settings: primary screen
Description: as §1

ENR+CD organoids = experiment: Primary screen: ATP (CellTiter-Glo 3D, CTG) cell number/viability, 2.5-D 384-well ENR+CD organoids;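 also: compounds given at plating and again on day 3 over a 6-day differentiation from ENR+CV stem-cell-enriched precursors, ATP measured on day 6, plate median as control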
[3] = primary screen, standard z score, dose 0.08 uM
[4] = primary screen, standard z score, dose 0.40 uM
[5] = primary screen, standard z score, dose 2.00 uM
[6] = primary screen, standard z score, dose 10.00 uM
[7] = primary screen, dose 0.08 uM, standard z score
[8] = primary screen, dose 0.40 uM, standard z score
[9] = primary screen, dose 2.00 uM, standard z score
[10] = primary screen, dose 10.00 uM, standard z score
[11] = primary screen; dose 0.08 uM; FC vs plate median
[12] = primary screen; dose 0.40 uM; FC vs plate median
[13] = primary screen; dose 2.00 uM; FC vs plate median
[14] = primary screen; dose 10.00 uM; FC vs plate median
[15] = dose 0.08 uM, FC vs plate median
[16] = dose 0.40 uM, FC vs plate median
[17] = dose 2.00 uM, FC vs plate median
[18] = dose 10.00 uM, FC vs plate median

SMILES	Dose.FC.LYZ.NS ([1]; primary screen, dose 0.08 uM)	Dose.FC.LYZ.NS ([1]; primary screen, dose 0.40 uM)	Dose.FC.LYZ.NS ([1]; primary screen, dose 2.00 uM)	Dose.FC.LYZ.NS ([1]; primary screen, dose 10.00 uM)	Dose.FC.LYZ.S ([2]; dose 0.08 uM)	Dose.FC.LYZ.S ([2]; dose 0.40 uM)	Dose.FC.LYZ.S ([2]; dose 2.00 uM)	Dose.FC.LYZ.S ([2]; dose 10.00 uM)	Dose.FC.CTG (ENR+CD organoids; primary screen, dose 0.08 uM)	Dose.FC.CTG (ENR+CD organoids; primary screen, dose 0.40 uM)	Dose.FC.CTG (ENR+CD organoids; primary screen, dose 2.00 uM)	Dose.FC.CTG (ENR+CD organoids; primary screen, dose 10.00 uM)	Z.LYZ.NS [1, 3]	Z.LYZ.NS [1, 4]	Z.LYZ.NS [1, 5]	Z.LYZ.NS [1, 6]	Z.CTG (ENR+CD organoids; [3])	Z.CTG (ENR+CD organoids; [4])	Z.CTG (ENR+CD organoids; [5])	Z.CTG (ENR+CD organoids; [6])	also measured
CN(C)Cc1ccc(-c2nc3cccc4c3n2CCNC4=O)cc1 [AG-14361]	0.152 log2 fold change	0.036 log2 fold change	0.032 log2 fold change	−0.197 log2 fold change	0.100 log2 fold change	−0.001 log2 fold change	−0.065 log2 fold change	−0.189 log2 fold change	−0.012 log2 fold change	−0.069 log2 fold change	0.005 log2 fold change	−0.021 log2 fold change									Z.LYZ.NS (standard z score) ([1]; primary screen, dose 0.08 uM): 1.324; Z.LYZ.NS (standard z score) ([1]; primary screen, dose 0.40 uM): 0.312; Z.LYZ.NS (standard z score) ([1]; primary screen, dose 2.00 uM): 0.278; Z.LYZ.NS (standard z score) ([1]; primary screen, dose 10.00 uM): −1.713; Z.CTG (standard z score) (ENR+CD organoids; primary screen, dose 0.08 uM): −0.028; Z.CTG (standard z score) (ENR+CD organoids; primary screen, dose 0.40 uM): −0.165; Z.CTG (standard z score) (ENR+CD organoids; primary screen, dose 2.00 uM): 0.012; Z.CTG (standard z score) (ENR+CD organoids; primary screen, dose 10.00 uM): −0.050
CC(C)Oc1ccc(-c2cnc3c(-c4ccnc5ccccc45)cnn3c2)cc1 [DMH1]	0.018 log2 fold change	0.026 log2 fold change	0.014 log2 fold change	−0.075 log2 fold change	0.078 log2 fold change	0.054 log2 fold change	0.035 log2 fold change	−0.092 log2 fold change	−0.031 log2 fold change	−0.079 log2 fold change	−0.002 log2 fold change	−0.001 log2 fold change	0.155	0.231	0.124	−0.657	−0.075	−0.188	−0.004	−0.003	
NCC(=O)Nc1ccc(-n2nc(C(F)(F)F)cc2-c2ccc3c(ccc4ccccc43)c2)cc1 [OSU-03012 (AR-12)]																					Z.LYZ.NS [1, 7]: 0.755; Z.LYZ.NS [1, 8]: 0.285; Z.LYZ.NS [1, 9]: 0.460; Z.LYZ.NS [1, 10]: −0.423; Dose.FC.LYZ.NS [1, 11]: 0.087 log2 fold change; Dose.FC.LYZ.NS [1, 12]: 0.033 log2 fold change; Dose.FC.LYZ.NS [1, 13]: 0.053 log2 fold change; Dose.FC.LYZ.NS [1, 14]: −0.049 log2 fold change; Dose.FC.LYZ.S [2, 15]: 0.126 log2 fold change; Dose.FC.LYZ.S [2, 16]: 0.113 log2 fold change; Dose.FC.LYZ.S [2, 17]: 0.060 log2 fold change; Dose.FC.LYZ.S [2, 18]: −0.128 log2 fold change; Z.CTG (ENR+CD organoids; [7]): 0.491; Z.CTG (ENR+CD organoids; [8]): 0.272; Z.CTG (ENR+CD organoids; [9]): 0.556; Z.CTG (ENR+CD organoids; [10]): 0.185; Dose.FC.CTG (ENR+CD organoids; [11]): 0.205 log2 fold change; Dose.FC.CTG (ENR+CD organoids; [12]): 0.114 log2 fold change; Dose.FC.CTG (ENR+CD organoids; [13]): 0.233 log2 fold change; Dose.FC.CTG (ENR+CD organoids; [14]): 0.078 log2 fold change
CC1=C(C(=O)OC2CCCCC2)C(c2ccc([N+](=O)[O-])cc2)C2=C(CC(C)(C)CC2=O)N1 (stereo not shown) [FLI-06]	0.050 log2 fold change	−0.026 log2 fold change	−0.054 log2 fold change	−0.140 log2 fold change	0.079 log2 fold change	0.010 log2 fold change	−0.077 log2 fold change	−0.170 log2 fold change	0.089 log2 fold change	0.095 log2 fold change	0.076 log2 fold change	−0.343 log2 fold change	0.439	−0.230	−0.466	−1.216	0.213	0.226	0.182	−0.819	
CC(C)(F)C[C@H](N[C@@H](c1ccc(-c2ccc(S(C)(=O)=O)cc2)cc1)C(F)(F)F)C(=O)NC1(C#N)CC1 [Odanacatib (MK-0822)]																					Z.LYZ.NS [1, 7]: 0.752; Z.LYZ.NS [1, 8]: 1.409; Z.LYZ.NS [1, 9]: 0.212; Z.LYZ.NS [1, 10]: −0.307; Dose.FC.LYZ.NS [1, 11]: 0.086 log2 fold change; Dose.FC.LYZ.NS [1, 12]: 0.162 log2 fold change; Dose.FC.LYZ.NS [1, 13]: 0.024 log2 fold change; Dose.FC.LYZ.NS [1, 14]: −0.035 log2 fold change; Dose.FC.LYZ.S [2, 15]: 0.091 log2 fold change; Dose.FC.LYZ.S [2, 16]: 0.170 log2 fold change; Dose.FC.LYZ.S [2, 17]: 0.036 log2 fold change; Dose.FC.LYZ.S [2, 18]: −0.074 log2 fold change; Z.CTG (ENR+CD organoids; [7]): 0.285; Z.CTG (ENR+CD organoids; [8]): 0.496; Z.CTG (ENR+CD organoids; [9]): −0.020; Z.CTG (ENR+CD organoids; [10]): 0.015; Dose.FC.CTG (ENR+CD organoids; [11]): 0.119 log2 fold change; Dose.FC.CTG (ENR+CD organoids; [12]): 0.208 log2 fold change; Dose.FC.CTG (ENR+CD organoids; [13]): −0.008 log2 fold change; Dose.FC.CTG (ENR+CD organoids; [14]): 0.006 log2 fold change
